Photoluminescence quantum yield data for 46 compounds are collected here from the Deep4Chem optical property database.

A short description of the data set: photoluminescence quantum yield (fraction); solvent given as SMILES.
Setting [1] is: in O=P(c1ccccc1)(c1ccccc1)c1ccccc1Oc1ccccc1P(=O)(c1ccccc1)c1ccccc1.

Turning to `COCCOCCOCCNc1cc2c3c(c(NCCOCCOCCOC)cc4c3c1C(=O)N(CCOCCOCCOC)C4=O)C(=O)N(CCOCCOCCOC)C2=O`, the photoluminescence quantum yield is, setting by setting: (in CO) 0.33; (in ClC(Cl)Cl) 0.56; (in O) 0.039.
Under setting [1], `CC(C)(C)c1ccc2c(c1)c1cc(C(C)(C)C)ccc1n2-c1cc[n+]2c(c1)-c1ccccc1O[B-]2(F)F` displayed a photoluminescence quantum yield of 0.74.
`Cc1cc(C)c(B(c2cc(C#Cc3ccccc3)sc2-c2sc(C#Cc3ccccc3)cc2P(=O)(c2ccccc2)c2ccccc2)c2c(C)cc(C)cc2C)c(C)c1` showed a photoluminescence quantum yield (in CO) of 0.61.
`C[Si](C)(C)O[Si]1(O[Si](C)(C)C)n2c3c4ccccc4c2/N=C2N=C(/N=c4/c5ccccc5/c(n41)=N/C1=NC(=N\3)/c3ccccc31)c1ccccc1\2` had a photoluminescence quantum yield (in CN(C)C=O) of 0.42.
`COc1cc2c(cc1OC)C1=C[C@H](c3ccc(C)cc3)C3(C(C#N)=C(C#N)N1CC2)c1cc(Br)ccc1-c1ccc(Br)cc13` registered a photoluminescence quantum yield (in ClCCl) of 0.00023.
As to `COc1ccc([C@@H]2C[C@](O)(c3ccccn3)C[C@](O)(c3ccccn3)[C@H]2C(=O)c2ccc(N(c3ccccc3)c3ccccc3)cc2)cc1`, the photoluminescence quantum yield is 0.5 (in C1CCOC1); 0.02 (in CC#N); 0.01 (in CCO); 0.42 (in CCOC(C)=O); 0.03 (in CN(C)C=O); 0.26 (in ClCCl). For the setting “in c1ccccc1”, this compound yielded a photoluminescence quantum yield of 0.93.
Turning to `Cc1cc(=O)oc2cc3c4ccccc4c4ccccc4c3cc12`, the photoluminescence quantum yield is, setting by setting: (in CO) 0.09; (in ClC(Cl)Cl) 0.12.
On to `Cc1ccc2[nH]c(-c3ccc(-c4ccc(-c5ccc(-c6nc7cc(C)ccc7[nH]6)cc5)cc4)cc3)nc2c1`, for which, for the setting “in CN(C)C=O”, the photoluminescence quantum yield was 0.94.
For the setting “in ClC(Cl)Cl”, `Cc1ccc(-c2oc3cccc4c5c(-c6ccc(C)cc6)c(=N)oc6cccc(c2c34)c65)cc1` gave a photoluminescence quantum yield of 0.1.
As for `CN(C)C(=O)c1ccc(-c2nc3ccc(N(C)C)cc3s2)cc1`, the photoluminescence quantum yield (in C1CCCCC1) turned out to be 0.84; the photoluminescence quantum yield (in CC#N) was found to be 0.85; the photoluminescence quantum yield (in CC(C)O) was 0.81; the photoluminescence quantum yield (in CO) turned out to be 0.92; the photoluminescence quantum yield (in CS(C)=O) was 0.9; the photoluminescence quantum yield (in ClC(Cl)Cl) came out at 0.89. The compound further yielded a photoluminescence quantum yield (in c1ccccc1) of 0.98.
Compound `Cn1c2ccccc2c(=O)c2ccccc21` showed a photoluminescence quantum yield (in CS(C)=O) of 0.65.
For the setting “in ClCCl”, `CCCCCCN1C(=O)c2cccc3c(-c4ccc(-c5cc(-c6ccc(C)cc6)n(-c6ccccc6)n5)s4)ccc(c23)C1=O` yielded a photoluminescence quantum yield of 0.36.
As to `COc1ccc(O)c(-c2nc(C)c3n2CCCC3)c1`, where the note is “in ClCCl”, the photoluminescence quantum yield was determined as 0.11.
Where the note is “in CC#N”, `N#CC(/N=C/c1c(O)ccc2ccccc12)=C(C#N)/N=C/c1c(O)ccc2ccccc12` registered a photoluminescence quantum yield of 0.37.
For the compound `CN(C)CCN(Cc1c2ccccc2c(CN(CCN(C)C)c2ccc([N+](=O)[O-])cc2[N+](=O)[O-])c2ccccc12)c1ccc([N+](=O)[O-])cc1[N+](=O)[O-]`, the photoluminescence quantum yield turned out to be 0.0052 (in C1CCOC1); 0.00153 (in CC#N); 0.0012 (in CC(C)=O); 0.0136 (in CCO); 0.00067 (in CN(C)C=O); 0.0387 (in CO).
Take `N#Cc1ccc(/C=C/c2ncc(-c3ccccc3)o2)cc1`: the photoluminescence quantum yield (in ClCCl) stood at 0.65.
Compound `O=S1(=O)C2=C(c3ccccc31)C1(C3=C(c4ccccc41)S(=O)(=O)c1ccccc13)c1ccccc12` registered a photoluminescence quantum yield (in ClCCl) of 0.76.
Where the note is “in ClC(Cl)Cl”, `N#Cc1cc2ccc3cc(C#N)c4ccccc4c3c2c2ccccc12` came in with a photoluminescence quantum yield of 0.14.
With `CN(C)c1ccc(/C=C/c2ccccn2)cc1`, the photoluminescence quantum yield reads like this: (in C1CCCCC1) 0.017; (in C1CCOC1) 0.042; (in C1COCCO1) 0.031; (in CC#N) 0.048; (in CC(C)O) 0.024; (in CCCCCC) 0.016. Moreover, the photoluminescence quantum yield is, setting by setting: (in CCCCCCC) 0.017; (in CCCCO) 0.026; (in CCO) 0.032; (in CCOC(C)=O) 0.03; (in CCOCC) 0.022; (in CN(C)C=O) 0.051. The photoluminescence quantum yield runs as follows: (in CO) 0.019; (in CS(C)=O) 0.054; (in O) 0.015.
`N#Cc1ccc(-n2c(-c3ccc(-c4ccc(-c5nc6c7ccccc7c7ccccc7c6n5-c5ccc(C#N)c6ccccc56)c5ccccc45)c4ccccc34)nc3c4ccccc4c4ccccc4c32)c2ccccc12` showed a photoluminescence quantum yield (in ClCCl) of 0.9.
`Cc1cccc(C)c1` gave a photoluminescence quantum yield (in C1CCCCC1) of 0.25.
Consider `c1ccc2c(-c3c4ccccc4c(-c4ccc(-c5ccc(-n6c7ccccc7c7ccccc76)cc5)cc4)c4ccccc34)cccc2c1`, for which the photoluminescence quantum yield (in ClCCl) was determined as 0.7.
Compound `F[B-]1(F)n2c(ccc2-c2cccs2)C(C(F)(F)F)=C2C=CC(c3cccs3)=[N+]21` returned a photoluminescence quantum yield (in CCCCCC) of 1.
`COc1ccc(C(=Cc2ccc(C=O)cc2)c2ccc(OC)cc2)cc1`: the photoluminescence quantum yield (in C1CCOC1) worked out at 0.066.
For the compound `Cn1c(=O)c(/N=N/c2ccc(Nc3ccccc3)c(S(=O)(=O)O)c2)c(O)c2ccccc21`, the photoluminescence quantum yield (in CS(C)=O) amounted to 0.04.
`Fc1ccccc1-c1c2cc(Cl)ccc2nc2cc3ccccc3cc12` came in with a photoluminescence quantum yield (in ClCCl) of 0.46.
In the case of `CCCCCCCCCC1(CCCCCCCCC)c2cc(C#Cc3ccc(/C=C/c4ccc(N(CCCCCCCC)CCCCCCCC)cc4)cc3)ccc2-c2ccc(C#Cc3ccc(/C=C/c4ccc(N(CCCCCCCC)CCCCCCCC)cc4)cc3)cc21`, where the note is “in Cc1ccccc1”, the photoluminescence quantum yield is 0.61.
Turning to `F[B-]1(F)OC(c2ccc(N3CCCCC3)cc2)=Cc2cccc[n+]21`, the photoluminescence quantum yield (in ClC(Cl)Cl) was 0.612.
The compound `CCOC(=O)C(C(=O)OCC)C1=[N+]2C(=C(c3ccc(C)cc3)c3ccc(Cl)n3[B-]2(F)F)C=C1` registered a photoluminescence quantum yield (in C1CCCCC1) of 0.46; a photoluminescence quantum yield (in C1CCOC1) of 0.48; a photoluminescence quantum yield (in CCOC(C)=O) of 0.4; a photoluminescence quantum yield (in CO) of 0.28; a photoluminescence quantum yield (in Cc1ccccc1) of 0.79; a photoluminescence quantum yield (in ClC(Cl)Cl) of 0.52.
As for `Cc1cc(C)c(B(c2ccc(N(c3ccccc3)c3ccccc3)cc2)c2c(C)cc(C)cc2C)c(C)c1`, the photoluminescence quantum yield (in Cc1ccccc1) amounted to 0.91.
In the case of `Cc1cc(-c2ccc(-c3ccccc3)cc2)cc(C)[o+]1`, the photoluminescence quantum yield (in ClCCl) came to 0.78.
Where the note is “in c1cc(-n2c3ccccc3c3ccccc32)nc(-n2c3ccccc3c3ccccc32)c1”, `CC(C)(C)c1ccc(-c2nnc(-c3c(-n4c5ccccc5c5ccccc54)c(-n4c5ccccc5c5ccccc54)c(-c4nnc(-c5ccc(C(C)(C)C)cc5)o4)c(-n4c5ccccc5c5ccccc54)c3-n3c4ccccc4c4ccccc43)o2)cc1` came in with a photoluminescence quantum yield of 0.89.
For `COc1ccc2cc(-c3ccc([N+](=O)[O-])cc3)ccc2c1`, the photoluminescence quantum yield reads like this: (in C1CCOC1) 0.006; (in CC#N) 0.006; (in ClC(Cl)Cl) 0.055; (in ClCCl) 0.11.
For the compound `COc1ccc(C2=CC(c3ccccc3)=C(c3ccccc3)C2)c2ccccc12`, under “in ClCCl”, the photoluminescence quantum yield was found to be 0.0685.
Consider `CC1(C)c2ccccc2N(c2ccccc2)c2ccc(-c3ccc(S(=O)(=O)c4ccc(-c5ccc6c(c5)C(C)(C)c5ccccc5N6c5ccccc5)cc4)cc3)cc21`, for which the photoluminescence quantum yield under setting [1] was 0.87.
Regarding `COc1ccc(C(=O)NC(C)(C)C)c2c1ccc1c3ccccc3c3ccccc3c12`, the photoluminescence quantum yield (in ClCCl) was found to be 0.1.
Take `CCC1=C(C)C2=C(C)c3c(I)c(I)c(I)n3[B-](F)(F)[N+]2=C1C`: the photoluminescence quantum yield was determined as 0.1 (in C1CCCCC1); 0.046 (in CC(C)=O); 0.061 (in CCO); 0.072 (in CCOC(C)=O); 0.051 (in CO); 0.04 (in OCC(F)(F)F).
Compound `c1ccc2c(c1)Sc1ccccc1N2c1ccc2c(ccc3nc4ccc5cc(N6c7ccccc7Sc7ccccc76)ccc5c4nc32)c1` had a photoluminescence quantum yield (in C1CCCCC1) of 0.06 and a photoluminescence quantum yield (in Cc1ccccc1) of 0.07.
`c1cc2ccc1-c1ccc(cc1)-c1ccc([se]1)-c1ccc(cc1)-c1ccc(cc1)-c1ccc([se]1)-c1ccc(cc1)-c1ccc(cc1)-c1ccc([se]1)-c1ccc(cc1)-c1ccc(cc1)-c1ccc-2[se]1`: where the note is “in C1CCOC1”, the photoluminescence quantum yield came to 0.13.
Regarding `COc1ccc2cc(-c3cc(-c4ccccc4)c4n3[B-](F)(F)[N+]3=C5C=NC=CN5[B-](F)(F)[N+]3=C4)ccc2c1`, the photoluminescence quantum yield (in ClCCl) was determined as 0.43.
Consider `CCCCCCC(CCCCCC)N1C(=O)c2cccc3c(-c4ccc(OC)c5ccccc45)ccc(c23)C1=O`, for which the photoluminescence quantum yield is, setting by setting: (in CCCCCC) 0.33; (in CCCCCCCCCCCCCC) 0.34; (in CCCCCCCCCCCO) 0.23; (in CCCCO) 0.088; (in CN(C)C=O) 0.13; (in Cc1ccccc1) 0.18. Also, under “in ClC(Cl)Cl”, the photoluminescence quantum yield came out at 0.39.
`Nc1cc2nc3cc(Cl)c(Cl)cc3nc2cc1N` had a photoluminescence quantum yield (in CCO) of 0.1.
Regarding `O=c1c2ccccc2nc2ccccn12`, the photoluminescence quantum yield (in ClCCl) is 0.96.
Regarding `CCCCC1(c2ccccc2)Nc2c(-c3ccc(OC)cc3)ccc(-c3ccc(OC)cc3)c2N=C1c1ccccc1` (stereo not given), the photoluminescence quantum yield (in ClC(Cl)Cl) is 0.45.
For the compound `CC1[C@@H]2[C@@H]1[C@]1(c3ccccc3)N=NC2(c2ccccc2)C2C3C=CC(C3)C21` (stereo not given in full), the photoluminescence quantum yield (in CC#N) worked out at 0.018.
`Clc1ccccc1-c1nc2sc3ccccc3c2s1` returned a photoluminescence quantum yield (in CS(C)=O) of 0.48.
